From US20150232876A1, “Use of a Receptor Kinase Having LysM Motifs in Order to Improve the Response of Plants to Lipochitooligosaccharides” (INSTITUT NATIONAL DE LA RECHERCHE AGRONOMIQUE, priority 2012, published 2015)

Tests used:
PsLYR3 = PsLYR3 (Lathyrus oleraceus, UniProt A0A9D5BD18); assay: Equilibrium, saturation and competitive binding on MtLYR3 ortholog expressed in N. benthamiana leaves; set-up: species or system Pisum sativum; settings: PsLYR3, 1 nM radioligand
From the text: (§1) In legumes, MtLYR3 orthologs have been identified in P. sativum, P. vulgaris and L. japonicus. In G. max orthologs exist in duplicate due to a duplication of the genome. The corresponding genes have been cloned and sequenced. A few differences in sequence compared with sequences in the databases were found which could be explained by the use of different varieties of plants or by sequencing errors in databases. The cloned genes were introduced into binary vectors, in C-terminal fusion with the fluorescent protein YFP, and introduced into Nicotiana benthamiana leaves using agroinfiltration by Agrobacterium tumefaciens, as described above in Example 3. The membrane fractions were isolated, their protein content was analyzed by electrophoresis under denaturing conditions, followed by immunodetection using anti-GFP antibody as described in Example 3, and their ability to interact with LCOs was determined by equilibrium binding, as described in Example 1, in the presence of 1 nM LCO-IV (S^35, C16:2Δ2, 9). The value of specific binding is determined by the value of difference between the total binding and the nonspecific binding obtained for incubation in the presence of an excess (2 μM) of unlabeled ligand. For comparison, the ability to interact of LjNFR5 and LjNFR1 receptors, identified in L. japonicus to play a role in nodulation by a genetic approach (MADSEN et al, Nature, 425, 637-40, 2003. RADUTOIU et al., Nature, 425, 585-92, 2003a) and respective orthologs of LYK3 and NFP in M. truncatula was determined under the same conditions.
(§2) To further characterize the binding properties of MtLYR3 orthologs to LCOs, saturation and competitive binding experiments in the presence of different COs or LCOs were performed.

SILYR3 = assay: Equilibrium binding on SILYR3 expressed in N. benthamiana leaves; set-up: species or system Solanum lycopersicum
Experimental: (§3) In non-legumes, PpLYR3, SILYR3 and AtLysM-RLK4 genes have been cloned, the corresponding proteins were expressed in N. benthamiana leaves, and their ability to bind to LCOs was determined by binding experiments at equilibrium, as described above for legumes LYR3 proteins.

PpLYR3 = PpLYR3 (Prunus persica, UniProt A0A251NBL6); assay: Equilibrium, saturation and competition binding on PpLYR3 expressed in N. benthamiana leaves
Experimental: as §3
The interaction of PpLYR3 with the Nod LCO-IV (^35S, C16:2Δ2, 9) factor has been characterized in more detail by means of saturation and competition experiments. The results obtained are illustrated in FIG. 9. […] Similarly, PpLYR3 specifically recognizes the LCOs as interaction with COs (CO-IV and CO-VIII) is of low affinity (Ki>5 μM).

GmLYR3-1 = GmLYR3-1 (Glycine max, UniProt A5YJW2); assay: Equilibrium, saturation and competitive binding on MtLYR3 ortholog expressed in N. benthamiana leaves; settings: GmLYR3-1, 1 nM radioligand
From the text: as §1, §2

GmLYR3-11 = GmLYR3-11 (Glycine max, UniProt I1LHL9); assay: as above; settings: GmLYR3-11, 1 nM radioligand
From the text: as §1, §2

LjLYS12 = LjLYS12 (Lotus japonicus, UniProt D3KTZ9); assay: as above; settings: LjLYS12, 1 nM radioligand
From the text: as §1, §2

PvLYR3 = PvLYR3 (Phaseolus vulgaris, UniProt V7CFC1); assay: as above; settings: PvLYR3, 1 nM radioligand
From the text: as §1, §2

LjNFR5 = assay: Equilibrium binding on receptor expressed in N. benthamiana leaves; set-up: species or system Lotus japonicus; settings: LjNFR5, 1 nM radioligand
From the text: as §1, with “For comparison, the ability to interact of LjNFR5 and LjNFR1 receptors, identified in L. japonicus to play a role in nodulation by a genetic approach (MADSEN et al, Nature, 425, 637-40, 2003. RADUTOIU et al., Nature, 425, 585-92, 2003a) and respective orthologs of LYK3 and NFP in M. truncatula was determined under the same conditions.” left out

LjNFR1 = assay: as above; set-up: species or system Lotus japonicus; settings: LjNFR1, 1 nM radioligand
From the text: as §1, with “For comparison, the ability to interact of LjNFR5 and LjNFR1 receptors, identified in L. japonicus to play a role in nodulation by a genetic approach (MADSEN et al, Nature, 425, 637-40, 2003. RADUTOIU et al., Nature, 425, 585-92, 2003a) and respective orthologs of LYK3 and NFP in M. truncatula was determined under the same conditions.” left out

AtLysM-RLK4 = target: T1, AtLysM-RLK4 (Arabidopsis thaliana, UniProt O64825); assay: Equilibrium binding on AtLysM-RLK4 expressed in N. benthamiana leaves
T1 construct: YFP (implied by anti-GFP immunopurification); expressed in transfected cells; host or cells: Nicotiana benthamiana leaves, membrane fraction
T1 sequence (O64825 23-612): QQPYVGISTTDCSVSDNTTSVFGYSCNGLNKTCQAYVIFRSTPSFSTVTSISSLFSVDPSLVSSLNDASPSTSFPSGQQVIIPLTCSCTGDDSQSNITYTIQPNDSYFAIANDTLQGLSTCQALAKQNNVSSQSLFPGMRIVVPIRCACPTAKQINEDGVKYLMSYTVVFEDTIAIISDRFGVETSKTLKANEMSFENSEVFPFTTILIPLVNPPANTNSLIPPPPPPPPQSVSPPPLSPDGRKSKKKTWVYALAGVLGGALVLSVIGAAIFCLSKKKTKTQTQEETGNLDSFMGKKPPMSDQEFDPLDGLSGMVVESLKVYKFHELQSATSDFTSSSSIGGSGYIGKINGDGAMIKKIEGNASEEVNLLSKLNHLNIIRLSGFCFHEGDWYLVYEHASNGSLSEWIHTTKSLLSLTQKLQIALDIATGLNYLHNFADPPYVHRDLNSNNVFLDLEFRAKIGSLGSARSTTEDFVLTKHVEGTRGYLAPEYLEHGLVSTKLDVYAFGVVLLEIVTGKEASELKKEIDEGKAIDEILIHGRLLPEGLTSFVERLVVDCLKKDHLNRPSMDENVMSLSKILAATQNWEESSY
Experimental: as §3

[1] = test system: 100 kDa polypeptide (MtNFBS2); assay: Photolabeling of the 100 kDa polypeptide in membrane fractions, with excess competitors; assay type: binding, Medicago truncatula; settings: 2 μM competitor, 5 nM azido ligand, dmi3 membrane fraction
From the text: To assess the molecular mass of the affine protein of Nod factors responsible for binding properties of MtNFBS2, a photolabeling with Nod factors analogs containing a photoactivatable group, which after irradiation in a given wavelength reactive species which can form a covalent bond with the surrounding molecules, has been taken. […] homologues of these molecules have been synthesized and labeled with ^35S to enable detection of the stable complex ligand/binding protein.
For photolabeling, 5 nM of radioactive and photoactivatable ligand, alone or in the presence of an excess (2 μM) different competitors were incubated in binding buffer, in the same conditions as described in Example 1 above for the binding experiments at equilibrium, with 300 micrograms of membrane protein fraction obtained from cultured cells of wild-type Medicago truncatula (A 17), or the dmi3 mutant of Medicago truncatula. After 1 hour of incubation, the samples were irradiated for 5 min at 254 nm or 10 min at 365 nm with a fluorescent tube at a distance of 4 cm. The free ligand was removed by centrifugation, and the membrane pellet was washed two times in binding buffer.
The membrane pellet proteins were separated by polyacrylamide gel electrophoresis in 10% SDS, and transferred onto nitrocellulose membrane, and detection was carried out by autoradiography.

LYR3 = LYR3 (Medicago truncatula, UniProt G7KAT5); assay: Saturation and competitive binding on LYR3-YFP expressed in N. benthamiana leaf membrane fractions; settings: LYR3-YFP in N. benthamiana leaf membranes; competition with 0.9 nM LCO-IV(35S, C16:2Δ2,9); read-out: Affinity (nM) for LYR3 (Ki)
From the text: Genes LYR3, LYK9 and LYR6 were inserted into a binary vector, fused in C-terminal with a fluorescent protein (Yellow Fluorescent Protein: YFP) and introduced into Nicotiana benthamiana leaves using agroinfiltration by Agrobacterium tumefaciens. Meanwhile, NFP and LYK3 genes which encode putative receptors […] Nod factors were inserted into the same vectors and expressed in the same conditions.
3 days after agro-infiltration, leaves of N. benthamiana expressing the different constructs were harvested and ground in liquid nitrogen. Membrane fractions were prepared from the ground material, using the same protocol as that described above for the preparation of microsomal fractions, except that 0.6% (w/v) of polyvinyl-polypyrrolidone were added to extraction buffer. After centrifugation at 3000×g, the supernatant was collected and centrifuged at 45000×g. The resulting (membrane fraction) pellet was resuspended in binding buffer, and stored at −80° C. in the presence of 10% or 50% glycerol, until use.
Membrane proteins were separated by 10% polyacrylamide gel electrophoresis in SDS, and transferred onto nitrocellulose membrane, and detection of recombinant proteins made using anti-GFP antibody. Meanwhile, the properties of specific binding to LCOs were assessed by equilibrium binding, as described in Example 1, using 0.8 to 2.4 nM of LCO-IV (^35S, C16:2Δ2, 9) +/−2 μM of unlabeled LCO-IV (S, C16: 2Δ2, 9), and 25 micrograms to 80 micrograms of membrane protein, depending of the expression level of the protein labeled with YFP.
To further characterize the binding properties of the protein LYR3, saturation binding experiments using LCO-IV (^35S, C16:2Δ2, 9) and competitive binding experiments in the presence of different COs or LCOs were performed.

PpLYR3, sequence (A0A251NBL6 entry or part of it): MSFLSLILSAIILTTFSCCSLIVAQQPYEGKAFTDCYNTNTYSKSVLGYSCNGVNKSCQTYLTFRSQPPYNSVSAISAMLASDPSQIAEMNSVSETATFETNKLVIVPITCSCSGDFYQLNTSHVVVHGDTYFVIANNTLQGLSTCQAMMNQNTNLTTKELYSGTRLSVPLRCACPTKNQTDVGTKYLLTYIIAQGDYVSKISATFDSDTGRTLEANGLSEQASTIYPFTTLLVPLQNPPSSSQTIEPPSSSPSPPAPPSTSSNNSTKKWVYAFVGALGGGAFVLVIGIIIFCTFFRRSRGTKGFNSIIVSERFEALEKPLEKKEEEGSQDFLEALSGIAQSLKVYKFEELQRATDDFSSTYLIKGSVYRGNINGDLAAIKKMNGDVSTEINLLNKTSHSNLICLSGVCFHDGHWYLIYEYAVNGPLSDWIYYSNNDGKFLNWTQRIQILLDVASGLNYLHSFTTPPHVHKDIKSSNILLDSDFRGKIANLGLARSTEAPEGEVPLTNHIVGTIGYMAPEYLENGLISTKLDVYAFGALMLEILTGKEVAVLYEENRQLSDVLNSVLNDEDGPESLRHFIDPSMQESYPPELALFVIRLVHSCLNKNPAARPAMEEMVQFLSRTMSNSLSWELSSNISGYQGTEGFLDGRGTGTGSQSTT
LYR3, sequence (G7KAT5 entry or part of it): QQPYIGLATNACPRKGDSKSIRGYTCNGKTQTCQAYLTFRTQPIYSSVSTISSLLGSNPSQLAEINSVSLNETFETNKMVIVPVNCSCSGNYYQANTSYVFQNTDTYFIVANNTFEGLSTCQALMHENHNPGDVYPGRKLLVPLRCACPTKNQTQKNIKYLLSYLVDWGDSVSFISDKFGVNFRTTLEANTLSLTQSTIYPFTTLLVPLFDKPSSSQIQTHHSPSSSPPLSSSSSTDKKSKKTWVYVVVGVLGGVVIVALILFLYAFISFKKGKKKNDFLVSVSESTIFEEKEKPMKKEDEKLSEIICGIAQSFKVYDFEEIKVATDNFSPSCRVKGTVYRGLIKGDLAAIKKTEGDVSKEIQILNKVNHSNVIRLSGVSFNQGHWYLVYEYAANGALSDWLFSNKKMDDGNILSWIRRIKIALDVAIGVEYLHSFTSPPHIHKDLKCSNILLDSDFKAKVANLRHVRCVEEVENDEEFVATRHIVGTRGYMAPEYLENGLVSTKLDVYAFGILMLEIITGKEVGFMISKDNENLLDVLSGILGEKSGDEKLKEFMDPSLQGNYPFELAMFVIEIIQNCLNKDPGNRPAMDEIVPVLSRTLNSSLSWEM
GmLYR3-1, sequence (A5YJW2 entry or part of it): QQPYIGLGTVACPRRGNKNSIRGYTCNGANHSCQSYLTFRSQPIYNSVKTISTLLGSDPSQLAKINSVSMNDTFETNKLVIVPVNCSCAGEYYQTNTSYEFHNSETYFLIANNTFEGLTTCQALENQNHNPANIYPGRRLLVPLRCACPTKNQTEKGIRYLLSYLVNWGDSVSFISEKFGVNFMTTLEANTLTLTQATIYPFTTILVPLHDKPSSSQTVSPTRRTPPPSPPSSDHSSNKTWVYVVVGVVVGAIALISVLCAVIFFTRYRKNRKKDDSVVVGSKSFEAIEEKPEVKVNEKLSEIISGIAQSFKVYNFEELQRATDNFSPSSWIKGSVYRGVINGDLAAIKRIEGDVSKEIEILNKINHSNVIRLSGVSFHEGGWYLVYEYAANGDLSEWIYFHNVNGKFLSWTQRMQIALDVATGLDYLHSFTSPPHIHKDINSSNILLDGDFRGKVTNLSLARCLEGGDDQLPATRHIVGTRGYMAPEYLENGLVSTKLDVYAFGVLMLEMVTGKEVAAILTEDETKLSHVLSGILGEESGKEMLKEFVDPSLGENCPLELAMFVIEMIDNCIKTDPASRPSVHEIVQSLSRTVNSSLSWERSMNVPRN
PsLYR3, sequence (A0A9D5BD18 entry or part of it): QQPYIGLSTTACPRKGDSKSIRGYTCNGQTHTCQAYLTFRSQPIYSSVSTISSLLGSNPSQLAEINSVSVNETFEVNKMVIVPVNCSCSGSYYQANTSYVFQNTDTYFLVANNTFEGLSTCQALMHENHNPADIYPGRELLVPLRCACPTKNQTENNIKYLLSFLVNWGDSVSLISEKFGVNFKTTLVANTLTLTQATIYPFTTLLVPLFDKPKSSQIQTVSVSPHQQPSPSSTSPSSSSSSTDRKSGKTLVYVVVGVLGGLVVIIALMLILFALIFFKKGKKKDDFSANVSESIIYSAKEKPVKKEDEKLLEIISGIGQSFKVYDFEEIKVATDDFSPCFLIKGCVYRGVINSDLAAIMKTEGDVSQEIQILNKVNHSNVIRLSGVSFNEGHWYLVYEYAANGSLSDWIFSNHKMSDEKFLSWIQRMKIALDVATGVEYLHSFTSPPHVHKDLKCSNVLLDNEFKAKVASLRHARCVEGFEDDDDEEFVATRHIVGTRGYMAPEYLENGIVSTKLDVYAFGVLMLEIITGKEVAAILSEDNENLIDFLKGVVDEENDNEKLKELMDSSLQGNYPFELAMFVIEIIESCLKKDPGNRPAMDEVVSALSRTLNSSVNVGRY
GmLYR3-11, sequence (I1LHL9 entry or part of it): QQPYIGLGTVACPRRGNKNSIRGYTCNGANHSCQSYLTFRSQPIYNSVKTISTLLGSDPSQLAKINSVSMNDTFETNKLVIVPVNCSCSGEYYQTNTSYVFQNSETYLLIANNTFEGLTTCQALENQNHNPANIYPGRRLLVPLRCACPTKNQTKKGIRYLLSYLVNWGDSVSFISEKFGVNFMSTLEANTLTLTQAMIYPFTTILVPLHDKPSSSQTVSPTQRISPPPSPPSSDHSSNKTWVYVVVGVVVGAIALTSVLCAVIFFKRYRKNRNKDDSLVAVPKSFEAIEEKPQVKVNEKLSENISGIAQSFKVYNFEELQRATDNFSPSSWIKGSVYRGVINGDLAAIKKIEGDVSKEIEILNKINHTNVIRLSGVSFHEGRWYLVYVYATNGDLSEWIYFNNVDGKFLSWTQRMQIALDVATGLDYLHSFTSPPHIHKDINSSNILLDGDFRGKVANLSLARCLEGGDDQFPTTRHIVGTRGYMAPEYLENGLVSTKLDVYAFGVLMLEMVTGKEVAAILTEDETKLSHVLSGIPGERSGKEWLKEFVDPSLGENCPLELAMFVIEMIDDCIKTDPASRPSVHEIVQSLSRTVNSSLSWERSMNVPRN
PvLYR3, sequence (V7CFC1 entry or part of it): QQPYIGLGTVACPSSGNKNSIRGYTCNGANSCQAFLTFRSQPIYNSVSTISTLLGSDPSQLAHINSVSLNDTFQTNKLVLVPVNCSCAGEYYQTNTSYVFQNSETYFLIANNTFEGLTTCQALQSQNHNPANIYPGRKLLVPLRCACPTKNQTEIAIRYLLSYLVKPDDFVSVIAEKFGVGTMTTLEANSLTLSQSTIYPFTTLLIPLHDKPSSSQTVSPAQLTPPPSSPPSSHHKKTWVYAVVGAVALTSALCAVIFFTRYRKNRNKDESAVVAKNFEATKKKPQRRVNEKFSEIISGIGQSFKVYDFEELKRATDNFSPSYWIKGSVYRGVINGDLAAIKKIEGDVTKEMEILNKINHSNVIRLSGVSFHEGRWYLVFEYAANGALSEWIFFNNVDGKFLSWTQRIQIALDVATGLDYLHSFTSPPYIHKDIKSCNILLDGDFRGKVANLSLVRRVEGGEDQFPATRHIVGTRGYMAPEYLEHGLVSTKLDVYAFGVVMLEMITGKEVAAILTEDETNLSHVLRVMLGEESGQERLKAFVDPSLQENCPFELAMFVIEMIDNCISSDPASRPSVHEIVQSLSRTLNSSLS
LjLYS12, sequence (D3KTZ9 entry or part of it): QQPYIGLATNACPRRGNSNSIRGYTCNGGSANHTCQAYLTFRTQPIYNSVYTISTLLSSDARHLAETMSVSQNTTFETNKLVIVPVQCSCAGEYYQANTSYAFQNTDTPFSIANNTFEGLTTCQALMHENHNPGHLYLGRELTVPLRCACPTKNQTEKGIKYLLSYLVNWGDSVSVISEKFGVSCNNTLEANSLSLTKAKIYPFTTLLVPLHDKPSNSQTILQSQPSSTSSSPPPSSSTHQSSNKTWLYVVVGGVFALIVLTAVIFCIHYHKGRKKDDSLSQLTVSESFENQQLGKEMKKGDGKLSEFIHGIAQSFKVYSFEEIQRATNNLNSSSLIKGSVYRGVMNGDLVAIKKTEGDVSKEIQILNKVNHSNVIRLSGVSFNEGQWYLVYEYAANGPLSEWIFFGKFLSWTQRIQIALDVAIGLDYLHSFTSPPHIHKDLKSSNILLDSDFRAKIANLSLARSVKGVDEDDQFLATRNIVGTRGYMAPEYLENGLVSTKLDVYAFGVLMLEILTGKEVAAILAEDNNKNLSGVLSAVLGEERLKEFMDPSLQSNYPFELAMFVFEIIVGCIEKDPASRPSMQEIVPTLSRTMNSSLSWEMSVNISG

Row | SMILES | binding activity of membrane fractions (interaction with radioligand) (PsLYR3) | binding activity of membrane fractions (interaction with radioligand) (SILYR3) | binding activity of membrane fractions (interaction with radioligand) (PpLYR3; PpLYR3) | Kd (PpLYR3; PpLYR3, saturation) [nM] | binding activity of membrane fractions (interaction with radioligand) (GmLYR3-1) | binding activity of membrane fractions (interaction with radioligand) (GmLYR3-11) | binding activity of membrane fractions (interaction with radioligand) (LjLYS12) | binding activity of membrane fractions (interaction with radioligand) (PvLYR3) | binding activity of membrane fractions (interaction with radioligand) (LjNFR5) | binding activity of membrane fractions (interaction with radioligand) (LjNFR1) | binding activity of membrane fractions (interaction with radioligand) (AtLysM-RLK4) | Ki (PpLYR3; PpLYR3, competition) [nM] | binding of the radiolabeled photoactivatable ligand to the 100 kDa polypeptide in presence of excess competitor [1] | Ki (LYR3) [nM]
1 | CCCCCC/C=C\CCCCC/C=C/C(=O)N[C@H]1[C@H](O[C@H]2[C@H](O)[C@@H](NC(C)=O)[C@H](O[C@H]3[C@H](O)[C@@H](NC(C)=O)[C@H](O[C@H]4[C@H](O)[C@@H](NC(C)=O)C(O)O[C@@H]4COS(=O)(=O)O)O[C@@H]3CO)O[C@@H]2CO)O[C@H](CO)[C@@H](O)[C@@H]1O (some centres unmarked) [LCO-IV (^35S, C16:2Δ2, 9)] | interact | very low | interacts | 15 | interact | interact | interact | interact | no interaction | no interaction | no interaction |  |  | 
2 | CC(=O)N[C@H]1[C@H](O[C@H]2[C@H](O)[C@@H](NC(C)=O)C(O)O[C@@H]2CO)O[C@H](CO)[C@@H](O[C@@H]2O[C@H](CO)[C@@H](O[C@@H]3O[C@H](CO)[C@@H](O)[C@H](O)[C@H]3NC(C)=O)[C@H](O)[C@H]2NC(C)=O)[C@@H]1O (some centres unmarked) [CO-IV, chitotetraose] |  |  |  |  |  |  |  |  |  |  |  | > 5000 | not | > 5000
